Laboratory results as given in the NIST ThermoML archive (doi:10.1016/j.jct.2009.06.016).
± gives the expanded uncertainty stated by the source.

Tests used:
[1] = 101 kPa, Liquid, Vibrating tube method
[2] = xn = mol fraction of the nth substance listed; conditions: 283.15 K; 101 kPa; Liquid; Vibrating tube method; x2 = 0

Row | mass density ([1]; 283.15 K) [kg/m3] | mass density ([1]; 288.15 K) [kg/m3] | mass density ([1]; 293.15 K) [kg/m3] | mass density ([1]; 298.15 K) [kg/m3] | mass density ([1]; 303.15 K) [kg/m3] | mass density [2] [kg/m3] | SMILES
1 | 894.462 ± 0.23 | 889.963 ± 0.23 | 885.456 ± 0.23 | 880.837 ± 0.23 | 876.279 ± 0.23 |  | CCCOCC(C)O (configuration not stated) [1-propoxy-2-propanol]
2 |  |  |  |  |  | 999.699 ± 0.05 | O [water] + CCCOCC(C)O
3 | 999.699 ± 0.05 |  |  |  |  |  | O [water]
